{
  "source": "ChEMBL document CHEMBL4673243",
  "about": "“Discovery of 9-Cyclopropylethynyl-2-((S)-1-[1,4]dioxan-2-ylmethoxy)-6,7-dihydropyrimido[6,1-a]isoquinolin-4-one (GLPG1205), a Unique GPR84 Negative Allosteric Modulator Undergoing Evaluation in a Phase II Clinical Trial” (J Med Chem, 2020)",
  "key": {"Cytochrome P450 3A4 [1]": {"biological_target": "T1, Cytochrome P450 3A4 (Homo sapiens, UniProt P08684)", "T1 sequence (P08684 whole entry)": "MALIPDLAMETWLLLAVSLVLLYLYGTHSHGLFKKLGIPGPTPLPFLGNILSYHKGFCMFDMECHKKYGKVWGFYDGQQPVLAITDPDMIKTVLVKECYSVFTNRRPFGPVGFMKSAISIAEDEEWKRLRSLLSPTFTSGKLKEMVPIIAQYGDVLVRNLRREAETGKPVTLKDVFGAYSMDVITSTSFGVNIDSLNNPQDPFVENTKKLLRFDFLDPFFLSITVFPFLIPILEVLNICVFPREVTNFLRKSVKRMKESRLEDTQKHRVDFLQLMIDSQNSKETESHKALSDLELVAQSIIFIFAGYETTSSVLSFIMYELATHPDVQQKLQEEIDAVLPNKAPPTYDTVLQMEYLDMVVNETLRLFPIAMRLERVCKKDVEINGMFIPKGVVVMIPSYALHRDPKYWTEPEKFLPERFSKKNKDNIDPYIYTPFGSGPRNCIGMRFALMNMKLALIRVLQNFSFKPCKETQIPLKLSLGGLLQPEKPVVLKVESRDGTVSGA", "assay": "Time-dependent inhibition of CYP3A4 in human liver microsomes using testosterone as substrate and in presence of co-factor by LC-MS/MS analysis"}, "Cytochrome P450 3A4 [2]": {"biological_target": "T1, Cytochrome P450 3A4", "assay": "Time-dependent inhibition of CYP3A4 in human liver microsomes using midazolam as substrate and in presence of co-factor by LC-MS/MS analysis"}, "Cytochrome P450 3A4 [3]": {"biological_target": "T1, Cytochrome P450 3A4", "assay": "Inhibition of human CYP3A4 in human liver microsomes using testosterone as substrate and in presence of co-factor preincubated for 20 mins followed by substrate addition by LC-MS/MS analysis"}, "Cytochrome P450 2C19": {"biological_target": "Cytochrome P450 2C19 (Homo sapiens, UniProt P33261)", "sequence (P33261 whole entry)": "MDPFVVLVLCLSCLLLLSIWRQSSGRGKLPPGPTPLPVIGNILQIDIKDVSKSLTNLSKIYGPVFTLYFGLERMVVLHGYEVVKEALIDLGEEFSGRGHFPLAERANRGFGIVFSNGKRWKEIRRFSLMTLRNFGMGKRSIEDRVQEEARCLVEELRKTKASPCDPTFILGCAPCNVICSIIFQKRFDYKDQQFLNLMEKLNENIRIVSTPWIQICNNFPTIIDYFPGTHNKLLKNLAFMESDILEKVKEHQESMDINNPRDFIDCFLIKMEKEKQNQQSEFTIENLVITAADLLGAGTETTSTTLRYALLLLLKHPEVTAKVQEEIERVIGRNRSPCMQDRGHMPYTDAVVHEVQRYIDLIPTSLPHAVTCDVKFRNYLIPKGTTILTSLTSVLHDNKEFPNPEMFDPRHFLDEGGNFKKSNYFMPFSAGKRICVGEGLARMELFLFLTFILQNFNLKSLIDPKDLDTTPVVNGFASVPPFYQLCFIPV", "assay": "Inhibition of CYP2C19 in human liver microsomes using probe substrate and in presence of co-factor preincubated for 20 mins followed by substrate addition by LC-MS/MS analysis"}, "[4]": {"assay": "Inhibition of embelin-induced migration of human neutrophils preincubated for 30 mins followed by embelin addition and measured after 1 hr by ATPlite luminescence assay", "details": "Neutrophil"}, "[5]": {"assay": "Thermodynamic solubility of compound at pH 3", "details": "buffer"}, "[6]": {"assay": "Apparent permeability from apical to basolateral in human Caco2 cells at 10 uM measured after 60 mins by lucifer yellow dye based LC-MS/MS analysis", "details": "Caco-2"}, "[7]": {"assay": "Plasma protein binding in rat at 5 uM measured after 4 hrs by LC-MS/MS analysis"}, "[8]": {"assay": "Plasma protein binding in human at 5 uM measured after 4 hrs by LC-MS/MS analysis"}, "[9]": {"assay": "Plasma protein binding in dog at 5 uM measured after 4 hrs by LC-MS/MS analysis"}, "[10]": {"assay": "Inhibition of embelin-induced migration of rat neutrophils preincubated for 30 mins followed by embelin addition and measured after 1 hr by celltiter-glo assay", "details": "Neutrophil"}, "Neutrophil": {"tested_on": "Neutrophil", "assay": "Inhibition of dog neutrophil cell migration", "details": "Canis lupus familiaris"}, "[11]": {"assay": "Initial plasma concentration in CD1 mouse at 1 mg/kg, iv administered as single bolus dose using PEG-200/saline formulation measured after 24 hrs by LC-MS/MS analysis"}, "[12]": {"assay": "Volume of distribution at steady state in CD1 mouse at 1 mg/kg, iv administered as single bolus dose using PEG-200/saline formulation measured after 24 hrs by LC-MS/MS analysis", "details": "in vivo"}, "[13]": {"assay": "Half-life in CD1 mouse at 1 mg/kg, iv administered as single bolus dose using PEG-200/saline formulation measured after 24 hrs by LC-MS/MS analysis", "details": "in vivo"}, "[14]": {"assay": "Half-life in male Sprague-Dawley rat at 0.5 mg/kg, iv administered as single bolus dose using PEG-200/NaCl formulation measured after 24 hrs by LC-MS/MS analysis", "details": "in vivo"}, "[15]": {"assay": "Clearance in male Sprague-Dawley rat at 0.5 mg/kg, iv administered as single bolus dose using PEG-200/NaCl formulation measured after 24 hrs by LC-MS/MS analysis", "details": "in vivo"}, "[16]": {"assay": "Volume of distribution at steady state in male Sprague-Dawley rat at 0.5 mg/kg, iv administered as single bolus dose using PEG-200/NaCl formulation measured after 24 hrs by LC-MS/MS analysis", "details": "in vivo"}, "[17]": {"assay": "Initial plasma concentration in male Sprague-Dawley rat at 0.5 mg/kg, iv administered as single bolus dose using PEG-200/NaCl formulation measured after 24 hrs by LC-MS/MS analysis"}, "[18]": {"assay": "Clearance in Beagle dog at 0.5 mg/kg, iv administered as 10 mins infusion via catheter by LC-MS/MS analysis", "details": "in vivo"}, "[19]": {"assay": "Volume of distribution at steady state in Beagle dog at 0.5 mg/kg, iv administered as 10 mins infusion via catheter by LC-MS/MS analysis", "details": "in vivo"}, "[20]": {"assay": "Half life in Beagle dog at 0.5 mg/kg, iv administered as 10 mins infusion via catheter by LC-MS/MS analysis", "details": "in vivo"}, "Mus musculus": {"species": "Mus musculus", "assay": "Antiinflammatory activity in Balb/cj mouse model of DSS-induced colitis assessed as minimum effective dose", "details": "read-out: MED"}, "[21]": {"biological_target": "Cytochrome P450 2D6 (Homo sapiens) (UniProt P10635)", "sequence (P10635 whole entry, looked up)": "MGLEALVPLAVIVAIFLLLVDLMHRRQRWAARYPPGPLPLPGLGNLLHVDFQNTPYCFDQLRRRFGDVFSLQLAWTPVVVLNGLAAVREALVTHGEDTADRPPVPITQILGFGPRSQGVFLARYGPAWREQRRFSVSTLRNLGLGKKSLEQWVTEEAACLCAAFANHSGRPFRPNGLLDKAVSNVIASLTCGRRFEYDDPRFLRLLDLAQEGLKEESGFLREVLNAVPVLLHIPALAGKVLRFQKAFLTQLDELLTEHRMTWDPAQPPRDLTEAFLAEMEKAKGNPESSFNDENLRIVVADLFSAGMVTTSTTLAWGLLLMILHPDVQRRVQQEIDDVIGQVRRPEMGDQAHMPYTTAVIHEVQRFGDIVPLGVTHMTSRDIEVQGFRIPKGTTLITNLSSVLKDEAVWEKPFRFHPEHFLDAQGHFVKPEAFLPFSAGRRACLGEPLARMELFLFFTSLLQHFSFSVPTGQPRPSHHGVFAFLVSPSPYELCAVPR"}, "in vivo [22]": {"assay": "in vivo", "details": "CD1, mouse, iv, 1 mg/kg"}, "in vivo [23]": {"assay": "in vivo", "details": "CD1, mouse, po, 5 mg/kg"}, "in vivo [24]": {"assay": "in vivo", "details": "CD1, mouse, po, 5 mg/kg", "remark": "listed apart in the source"}, "in vivo [25]": {"assay": "in vivo", "details": "CD1, mouse, po, 5 mg/kg", "remark": "listed apart in the source"}, "in vivo [26]": {"assay": "in vivo", "details": "CD1, mouse, po, 5 mg/kg", "remark": "listed apart in the source", "description": "Half-life in CD1 mouse at 5 mg/kg, po administered as single esophageal gavage dose post 12 hr fasting using PEG-200/water formulation measured after 24 hrs by LC-MS/MS analysis"}, "in vivo [27]": {"assay": "in vivo", "details": "CD1, mouse, po, 5 mg/kg", "remark": "listed apart in the source"}, "in vivo [28]": {"assay": "in vivo", "details": "male, Sprague-Dawley, rat, iv, 0.5 mg/kg"}, "in vivo [29]": {"assay": "in vivo", "details": "male, Sprague-Dawley, rat, po"}, "in vivo [30]": {"assay": "in vivo", "details": "male, Sprague-Dawley, rat, po", "remark": "listed apart in the source"}, "in vivo [31]": {"assay": "in vivo", "details": "male, Sprague-Dawley, rat, po", "remark": "listed apart in the source", "description": "Half-life in male Sprague-Dawley rat at 2.5 mg/kg, po administered as single gavage dose using PEG-200/water formulation measured after 24 hrs by LC-MS/MS analysis"}, "in vivo [32]": {"assay": "in vivo", "details": "male, Sprague-Dawley, rat, po", "remark": "listed apart in the source"}, "in vivo [33]": {"assay": "in vivo", "details": "Beagle, dog, iv, 0.5 mg/kg"}, "in vivo [34]": {"assay": "in vivo", "details": "Beagle, dog, po"}, "in vivo [35]": {"assay": "in vivo", "details": "Beagle, dog, po", "remark": "listed apart in the source"}, "in vivo [36]": {"assay": "in vivo", "details": "Beagle, dog, po", "remark": "listed apart in the source"}, "in vivo [37]": {"assay": "in vivo", "details": "Beagle, dog, po", "remark": "listed apart in the source", "description": "Half life in Beagle dog at 2.5 mg/kg, po administered as single dose via gavage by LC-MS/MS analysis"}, "in vivo [38]": {"assay": "in vivo", "details": "Balb/c, mouse, plasma, po, 3 mg/kg"}, "in vivo [39]": {"assay": "in vivo", "details": "Balb/c, mouse, plasma, po, 10 mg/kg"}, "in vivo [40]": {"assay": "in vivo", "details": "Balb/c, mouse, plasma, po, 10 mg/kg", "remark": "listed apart in the source"}, "physchem": {"assay": "physchem", "details": "aqueous solution with 2% DMSO, pH 3"}, "in vitro [41]": {"assay": "in vitro", "details": "mouse, cryopreserved hepatocytes"}, "in vitro [42]": {"assay": "in vitro", "details": "human, cryopreserved hepatocytes"}, "in vitro [43]": {"assay": "in vitro", "details": "dog, liver microsomes"}, "in vitro [44]": {"assay": "in vitro", "details": "rat, cryopreserved hepatocytes"}, "in vitro [45]": {"assay": "in vitro", "details": "dog, cryopreserved hepatocytes"}},
  "data": [
    {"smiles": "O=c1nc(OC[C@@H]2COCCO2)cc2n1CCc1cc(C#CC3CC3)ccc1-2", "note": "[GLPG-1205]", "values": [
      {"measurement": "IC50", "setting": "Cytochrome P450 3A4 [1]", "result": "> 50000", "unit": "nM"},
      {"measurement": "IC50", "setting": "Cytochrome P450 3A4 [2]", "result": "> 50000", "unit": "nM"},
      {"measurement": "IC50", "setting": "Cytochrome P450 3A4 [3]", "result": "> 50000", "unit": "nM"},
      {"measurement": "IC50", "setting": "Cytochrome P450 2C19", "result": "> 100000", "unit": "nM"},
      {"measurement": "IC50", "setting": "[4]", "result": 11, "unit": "nM"},
      {"measurement": "solubility thermodynamic", "setting": "[5]", "result": 12.6, "unit": "µg/mL"},
      {"measurement": "Papp A→B at 1 h, 10 µM", "setting": "[6]", "result": 41.9, "unit": "×10⁻⁶ cm/s"},
      {"measurement": "fraction unbound at 4 h, 5 µM", "setting": "[7]", "result": 0.023},
      {"measurement": "fraction unbound at 4 h, 5 µM", "setting": "[8]", "result": 0.028},
      {"measurement": "fraction unbound at 4 h, 5 µM", "setting": "[9]", "result": 0.065},
      {"measurement": "IC50", "setting": "[10]", "result": 111, "unit": "nM"},
      {"measurement": "IC50", "setting": "Neutrophil", "result": 75, "unit": "nM"},
      {"measurement": "C0 at 24 h", "setting": "[11]", "result": 1230, "unit": "ng/mL"},
      {"measurement": "Vd at 24 h", "setting": "[12]", "result": 0.6, "unit": "L/kg"},
      {"measurement": "half-life at 24 h", "setting": "[13]", "result": 0.6, "unit": "h"},
      {"measurement": "half-life at 24 h", "setting": "[14]", "result": 1, "unit": "h"},
      {"measurement": "clearance at 24 h", "setting": "[15]", "result": 11.7, "unit": "mL/min/kg"},
      {"measurement": "Vd at 24 h", "setting": "[16]", "result": 1.2, "unit": "L/kg"},
      {"measurement": "C0 at 24 h", "setting": "[17]", "result": 395, "unit": "ng/mL"},
      {"measurement": "clearance at […]", "setting": "[18]", "result": 20, "unit": "mL/min/kg"},
      {"measurement": "Vd at […]", "setting": "[19]", "result": 2, "unit": "L/kg"},
      {"measurement": "half-life at […]", "setting": "[20]", "result": 1.4, "unit": "h"},
      {"measurement": "minimal effective dose", "setting": "Mus musculus", "result": 3, "unit": "mg/kg"},
      {"measurement": "IC50", "setting": "[21]", "result": "> 100000", "unit": "nM"},
      {"measurement": "AUC(0-t) at 24 h", "setting": "in vivo [22]", "result": 1050, "unit": "ng·h/mL"},
      {"measurement": "Cmax at 24 h", "setting": "in vivo [23]", "result": 4590, "unit": "ng/mL"},
      {"measurement": "Tmax at 24 h", "setting": "in vivo [24]", "result": 0.5, "unit": "h"},
      {"measurement": "AUC(0-t) at 24 h", "setting": "in vivo [25]", "result": 15300, "unit": "ng·h/mL"},
      {"measurement": "half-life at 24 h", "setting": "in vivo [26]", "result": 1.9, "unit": "h"},
      {"measurement": "bioavailability at 24 h", "setting": "in vivo [27]", "result": "> 100", "unit": "%"},
      {"measurement": "AUC(0-t) at 24 h", "setting": "in vivo [28]", "result": 710, "unit": "ng·h/mL"},
      {"measurement": "Tmax at 24 h", "setting": "in vivo [29]", "result": 1.5, "unit": "h"},
      {"measurement": "AUC(0-t) at 24 h", "setting": "in vivo [30]", "result": 4470, "unit": "ng·h/mL"},
      {"measurement": "half-life at 24 h", "setting": "in vivo [31]", "result": 1.3, "unit": "h"},
      {"measurement": "bioavailability at 24 h", "setting": "in vivo [32]", "result": "> 100", "unit": "%"},
      {"measurement": "AUC(0-t) at […]", "setting": "in vivo [33]", "result": 410, "unit": "ng·h/mL"},
      {"measurement": "Cmax", "setting": "in vivo [34]", "result": 558, "unit": "ng/mL"},
      {"measurement": "Tmax", "setting": "in vivo [35]", "result": 0.5, "unit": "h"},
      {"measurement": "AUC(0-t) at 24 h", "setting": "in vivo [36]", "result": 2230, "unit": "ng·h/mL"},
      {"measurement": "half-life", "setting": "in vivo [37]", "result": 2, "unit": "h"},
      {"measurement": "AUC(0-t) at 24 h", "setting": "in vivo [38]", "result": 5560, "unit": "ng·h/mL"},
      {"measurement": "Tmax", "setting": "in vivo [39]", "result": 1, "unit": "h"},
      {"measurement": "AUC(0-t) at 24 h", "setting": "in vivo [40]", "result": 50400, "unit": "ng·h/mL"},
      {"measurement": "solubility", "setting": "physchem", "result": 113, "unit": "µg/mL"},
      {"measurement": "CLint scaled at 1 µM", "setting": "in vitro [41]", "result": "< 72.8", "unit": "mL/min/kg"},
      {"measurement": "CLint scaled at 1 µM", "setting": "in vitro [42]", "result": "< 21.3", "unit": "mL/min/kg"},
      {"measurement": "CLint scaled at 0.5 h, 1 µM", "setting": "in vitro [43]", "result": 89, "unit": "mL/min/kg"},
      {"measurement": "CLint scaled at 1 µM", "setting": "in vitro [44]", "result": "< 33.3", "unit": "mL/min/kg"},
      {"measurement": "CLint scaled at 1 µM", "setting": "in vitro [45]", "result": "< 24.2", "unit": "mL/min/kg"}
    ]}
  ]
}
